Measured values as given in the supplement of paper PMC10307832.

compound: CC1(C)CNc2cc(NC(=O)c3cccnc3NCc3ccncc3)ccc21 [Motesanib] + N=C(N)NC(=N)NCCc1ccccc1 [Phenformin] (partner 250 µM); assay: relative viability (nuclei count vs DMSO), 5 days (fraction); higher = more cells survive; conditions: first compound 0.01 µM
In short: (§1)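 Lung cancer cell lines were pin-tool dosed in 1536-well plates on the day after seeding, with either a lone drug or a fixed anchor-drug dose plus five library-drug doses (not always all listed) in √10 steps. Nuclei were counted on 4× images after 5 days. Relative viability is the ratio of treated-well to vehicle-well nuclei counts, with each value a median of duplicate plates.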

Q: With NCI-H2342 as the cell line, how does the relative viability read?
A: 0.448

Q: Which relative viability does the source give for NCI-H1623 here?
A: 0.551

Q: With NCI-H727 as the cell line, how does the relative viability read?
A: 0.408

Q: For NCI-H1650, which relative viability is on record?
A: 0.489

Q: NCI-H1993 was tested. Which relative viability did it give?
A: 0.489

Q: With SW 1573 as the cell line, how does the relative viability read?
A: 0.468

Q: For NCI-H838, which relative viability is on record?
A: 0.547

Q: For LCLC-103H, which relative viability is on record?
A: 0.338

Q: NCI-H520 was tested. Which relative viability did it give?
A: 0.538

Q: NCI-H2126 was tested. Which relative viability did it give?
A: 0.525

Q: For EMC-BAC-2, which relative viability is on record?
A: 0.527

Q: Which relative viability does the source give for NCI-H2085 here?
A: 0.745

Q: How did the relative viability turn out when HCC-366 was run?
A: 0.628

Q: For NCI-H596, which relative viability is on record?
A: 0.779

Q: A549 was tested. Which relative viability did it give?
A: 0.0998

Q: Which relative viability does the source give for NCI-H1563 here?
A: 0.617

same assay, conditions: first compound 0.03162 µM

Q: Which relative viability does the source give for NCI-H2342 here?
A: 0.588

Q: With NCI-H1623 as the cell line, how does the relative viability read?
A: 0.613

Q: Which relative viability does the source give for NCI-H727 here?
A: 0.613

Q: NCI-H1650 was tested. Which relative viability did it give?
A: 0.304

Q: Which relative viability does the source give for NCI-H1993 here?
A: 0.501

Q: For SW 1573, which relative viability is on record?
A: 0.343

Q: With NCI-H838 as the cell line, how does the relative viability read?
A: 0.667

Q: Which relative viability does the source give for LCLC-103H here?
A: 0.298

Q: How did the relative viability turn out when NCI-H520 was run?
A: 0.671

Q: Which relative viability does the source give for NCI-H2126 here?
A: 0.557

Q: How did the relative viability turn out when EMC-BAC-2 was run?
A: 0.507

Q: For NCI-H2085, which relative viability is on record?
A: 0.759

Q: HCC-366 was tested. Which relative viability did it give?
A: 0.53

Q: NCI-H596 was tested. Which relative viability did it give?
A: 0.861

Q: For A549, which relative viability is on record?
A: 0.109

Q: Which relative viability does the source give for NCI-H1563 here?
A: 0.598

same assay, conditions: first compound 0.1 µM

Q: With NCI-H2342 as the cell line, how does the relative viability read?
A: 0.807

Q: How did the relative viability turn out when NCI-H1623 was run?
A: 0.594

Q: For NCI-H727, which relative viability is on record?
A: 0.664

Q: Which relative viability does the source give for NCI-H1650 here?
A: 0.394

Q: How did the relative viability turn out when NCI-H1993 was run?
A: 0.516

Q: Which relative viability does the source give for SW 1573 here?
A: 0.388

Q: NCI-H838 was tested. Which relative viability did it give?
A: 0.514

Q: For LCLC-103H, which relative viability is on record?
A: 0.294

Q: Which relative viability does the source give for NCI-H520 here?
A: 0.468

Q: NCI-H2126 was tested. Which relative viability did it give?
A: 0.511

Q: How did the relative viability turn out when EMC-BAC-2 was run?
A: 0.581

Q: NCI-H2085 was tested. Which relative viability did it give?
A: 0.756

Q: With HCC-366 as the cell line, how does the relative viability read?
A: 0.619

Q: How did the relative viability turn out when NCI-H596 was run?
A: 0.67

Q: For A549, which relative viability is on record?
A: 0.165

Q: With NCI-H1563 as the cell line, how does the relative viability read?
A: 0.697

same assay, conditions: first compound 0.3162 µM

Q: NCI-H2342 was tested. Which relative viability did it give?
A: 0.562

Q: For NCI-H1623, which relative viability is on record?
A: 0.617

Q: With NCI-H727 as the cell line, how does the relative viability read?
A: 0.587

Q: NCI-H1650 was tested. Which relative viability did it give?
A: 0.417

Q: NCI-H1993 was tested. Which relative viability did it give?
A: 0.564

Q: For SW 1573, which relative viability is on record?
A: 0.36

Q: For NCI-H838, which relative viability is on record?
A: 0.745

Q: With LCLC-103H as the cell line, how does the relative viability read?
A: 0.369

Q: NCI-H520 was tested. Which relative viability did it give?
A: 0.587

Q: How did the relative viability turn out when NCI-H2126 was run?
A: 0.567

Q: EMC-BAC-2 was tested. Which relative viability did it give?
A: 0.56

Q: How did the relative viability turn out when NCI-H2085 was run?
A: 0.781

Q: Which relative viability does the source give for HCC-366 here?
A: 0.643

Q: With NCI-H596 as the cell line, how does the relative viability read?
A: 0.724

Q: With A549 as the cell line, how does the relative viability read?
A: 0.178

Q: For NCI-H1563, which relative viability is on record?
A: 0.715

same assay, conditions: first compound 1 µM

Q: Which relative viability does the source give for NCI-H2342 here?
A: 0.662

Q: For NCI-H1623, which relative viability is on record?
A: 0.578

Q: For NCI-H727, which relative viability is on record?
A: 0.487

Q: How did the relative viability turn out when NCI-H1650 was run?
A: 0.403

Q: NCI-H1993 was tested. Which relative viability did it give?
A: 0.451

Q: For SW 1573, which relative viability is on record?
A: 0.421

Q: How did the relative viability turn out when NCI-H838 was run?
A: 0.656

Q: Which relative viability does the source give for LCLC-103H here?
A: 0.37

Q: Which relative viability does the source give for NCI-H520 here?
A: 0.499

Q: Which relative viability does the source give for NCI-H2126 here?
A: 0.579

Q: EMC-BAC-2 was tested. Which relative viability did it give?
A: 0.539

Q: Which relative viability does the source give for NCI-H2085 here?
A: 0.759

Q: How did the relative viability turn out when HCC-366 was run?
A: 0.587

Q: NCI-H596 was tested. Which relative viability did it give?
A: 0.85

Q: For A549, which relative viability is on record?
A: 0.247

Q: Which relative viability does the source give for NCI-H1563 here?
A: 0.655

compound: C[C@@]1(C(=O)Nc2ccc(F)nc2)CCCN1c1nc(Nc2cc(C3CC3)n[nH]2)c2cccn2n1 + N=C(N)NC(=N)NCCc1ccccc1 [Phenformin] (partner 250 µM); assay: as above; conditions: first compound 0.04 µM
In short: as §1

Q: How did the relative viability turn out when NCI-H2342 was run?
A: 0.574

Q: With NCI-H1623 as the cell line, how does the relative viability read?
A: 0.563

Q: NCI-H727 was tested. Which relative viability did it give?
A: 0.402

Q: For NCI-H1650, which relative viability is on record?
A: 0.411

Q: Which relative viability does the source give for NCI-H1993 here?
A: 0.495

Q: How did the relative viability turn out when SW 1573 was run?
A: 0.232

Q: Which relative viability does the source give for NCI-H838 here?
A: 0.563

Q: LCLC-103H was tested. Which relative viability did it give?
A: 0.343

Q: How did the relative viability turn out when NCI-H520 was run?
A: 0.819

Q: For NCI-H2126, which relative viability is on record?
A: 0.459

Q: Which relative viability does the source give for EMC-BAC-2 here?
A: 0.472

Q: How did the relative viability turn out when NCI-H2085 was run?
A: 0.815

Q: HCC-366 was tested. Which relative viability did it give?
A: 0.66

Q: NCI-H596 was tested. Which relative viability did it give?
A: 0.649

Q: For A549, which relative viability is on record?
A: 0.131

Q: How did the relative viability turn out when NCI-H1563 was run?
A: 0.64

same assay, conditions: first compound 0.1265 µM

Q: NCI-H2342 was tested. Which relative viability did it give?
A: 0.43

Q: With NCI-H1623 as the cell line, how does the relative viability read?
A: 0.462

Q: Which relative viability does the source give for NCI-H727 here?
A: 0.247

Q: For NCI-H1650, which relative viability is on record?
A: 0.387

Q: With NCI-H1993 as the cell line, how does the relative viability read?
A: 0.657

Q: Which relative viability does the source give for SW 1573 here?
A: 0.218

Q: How did the relative viability turn out when NCI-H838 was run?
A: 0.449

Q: LCLC-103H was tested. Which relative viability did it give?
A: 0.309

Q: Which relative viability does the source give for NCI-H520 here?
A: 0.301

Q: Which relative viability does the source give for NCI-H2126 here?
A: 0.293

Q: EMC-BAC-2 was tested. Which relative viability did it give?
A: 0.437

Q: For NCI-H2085, which relative viability is on record?
A: 0.631

Q: With HCC-366 as the cell line, how does the relative viability read?
A: 0.54

Q: For NCI-H596, which relative viability is on record?
A: 0.69

Q: How did the relative viability turn out when A549 was run?
A: 0.155

Q: NCI-H1563 was tested. Which relative viability did it give?
A: 0.671

same assay, conditions: first compound 0.4 µM

Q: For NCI-H2342, which relative viability is on record?
A: 0.46

Q: With NCI-H1623 as the cell line, how does the relative viability read?
A: 0.449

Q: NCI-H727 was tested. Which relative viability did it give?
A: 0.266

Q: For NCI-H1650, which relative viability is on record?
A: 0.376

Q: With NCI-H1993 as the cell line, how does the relative viability read?
A: 0.541

Q: With SW 1573 as the cell line, how does the relative viability read?
A: 0.228

Q: NCI-H838 was tested. Which relative viability did it give?
A: 0.308

Q: LCLC-103H was tested. Which relative viability did it give?
A: 0.253

Q: NCI-H520 was tested. Which relative viability did it give?
A: 0.487

Q: Which relative viability does the source give for NCI-H2126 here?
A: 0.314

Q: For EMC-BAC-2, which relative viability is on record?
A: 0.399

Q: How did the relative viability turn out when NCI-H2085 was run?
A: 0.607

Q: Which relative viability does the source give for HCC-366 here?
A: 0.596

Q: Which relative viability does the source give for NCI-H596 here?
A: 0.738

Q: Which relative viability does the source give for A549 here?
A: 0.101

Q: For NCI-H1563, which relative viability is on record?
A: 0.605

same assay, conditions: first compound 1.265 µM

Q: Which relative viability does the source give for NCI-H2342 here?
A: 0.44

Q: For NCI-H1623, which relative viability is on record?
A: 0.477

Q: Which relative viability does the source give for NCI-H727 here?
A: 0.322

Q: How did the relative viability turn out when NCI-H1650 was run?
A: 0.193

Q: How did the relative viability turn out when NCI-H1993 was run?
A: 0.55

Q: For SW 1573, which relative viability is on record?
A: 0.214

Q: NCI-H838 was tested. Which relative viability did it give?
A: 0.37

Q: For LCLC-103H, which relative viability is on record?
A: 0.28

Q: How did the relative viability turn out when NCI-H520 was run?
A: 0.416

Q: Which relative viability does the source give for NCI-H2126 here?
A: 0.293

Q: For EMC-BAC-2, which relative viability is on record?
A: 0.313

Q: For NCI-H2085, which relative viability is on record?
A: 0.416

Q: For HCC-366, which relative viability is on record?
A: 0.186

Q: With NCI-H596 as the cell line, how does the relative viability read?
A: 0.763

Q: Which relative viability does the source give for A549 here?
A: 0.281

Q: NCI-H1563 was tested. Which relative viability did it give?
A: 0.626
